Data: patent US20260250318A1, “COMPOSITIONS AND METHODS FOR CROSSING THE BLOOD BRAIN BARRIER” (VOYAGER THERAPEUTICS, INC., priority 2022, published 2026)

Assays:
[1] = tested on: brains, heart, liver, muscle, and DRG of the NHPs; assay: Maturation of TTM-001 and TTM-002 capsids, NGS enrichment in NHP tissues; assay type: in vivo; conditions: relative to AAV9 control
Outline: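 Variants carry mutations within and flanking the loop IV peptide insert: positions 450–466 were triplet-randomized, while positions 449–466 received low-frequency point mutations. The combined pool went into two NHPs, and each peptide was scored by NGS enrichment ratio against AAV9.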

brain = assay: Matured TTM-001 and TTM-002 variants, NGS enrichment in mouse brain; assay type: in vivo, mice; conditions: relative to AAV9 control
[2] = NGS fold-enrichment of RNA, NHP brain
[3] = NGS fold-enrichment, NHP liver DNA
[4] = NGS fold-enrichment, NHP liver RNA
[5] = NGS fold-enrichment, NHP muscle
[6] = NGS fold-enrichment, mouse brain
[7] = NGS fold-enrichment of matured AAV capsid variants, NHP brain, RNA
[8] = NGS fold-enrichment, DRG of NHPs
[9] = NGS fold-enrichment, RNA, brain of NHPs
[10] = NGS fold-enrichment, heart of NHPs
[11] = NGS fold-enrichment, liver DNA of NHPs
[12] = NGS fold-enrichment, liver RNA of NHPs
[13] = NGS fold-enrichment, muscle of NHPs
[14] = NGS fold-enrichment, brain of mice

Sequence | Fold Enrichment relative to AAV9, Brain (NHP) [1, 2] [fold] | Fold Enrichment relative to AAV9, DRG (NHP) ([1]; NGS fold-enrichment, NHP DRG) [fold] | Fold Enrichment relative to AAV9, Heart (NHP) ([1]; NGS fold-enrichment, NHP heart) [fold] | Fold Enrichment relative to AAV9, Liver DNA (NHP) [1, 3] [fold] | Fold Enrichment relative to AAV9, Liver RNA (NHP) [1, 4] [fold] | Fold Enrichment relative to AAV9, Muscle (NHP) [1, 5] [fold] | Fold Enrichment relative to AAV9, Brain (Mouse) (brain; [6]) [fold] | Fold Enrichment relative to AAV9, Brain (NHP) [1, 7] [fold] | Fold Enrichment relative to AAV9, DRG (NHP) ([1]; NHP DRG) [fold] | Fold Enrichment relative to AAV9, Heart (NHP) ([1]; NHP heart) [fold] | Fold Enrichment relative to AAV9, Liver DNA (NHP) ([1]; NHP liver, DNA) [fold] | Fold Enrichment relative to AAV9, Liver RNA (NHP) ([1]; NHP liver, RNA) [fold] | Fold Enrichment relative to AAV9, Muscle (NHP) ([1]; NHP muscle) [fold] | Fold Enrichment relative to AAV9, Brain (Mouse) (brain; mouse brain) [fold] | also measured
KTTNGHDSPHKSGQNLLT | 77.738 | 0.130 | 0.064 | 0.326 | 0.424 | 0.185 | 15.192 | – | – | – | – | – | – | – | –
KTSNGSGSPHSKAQNYQT | – | – | – | – | – | – | – | 57.894 | 0.000 | 0.082 | 0.110 | 0.000 | 0.000 | 63.681 | –
KTELWHDSPHKSGQNQQT | 85.323 | 0.057 | 0.020 | 0.243 | 0.000 | 0.000 | 9.915 | – | – | – | – | – | – | – | –
KTINGHDSPHKSVQNHLN | 196.758 | 0.000 | 0.000 | 0.000 | 0.000 | 0.000 | 14.557 | – | – | – | – | – | – | – | –
KTINGSGSPHSKAQTPPT | – | – | – | – | – | – | – | – | – | – | – | – | – | – | Fold Enrichment relative to AAV9, DRG (NHP) [1, 8]: 0.010 fold; Fold Enrichment relative to AAV9, Brain (NHP) [1, 9]: 64.657 fold; Fold Enrichment relative to AAV9, Heart (NHP) [1, 10]: 0.015 fold; Fold Enrichment relative to AAV9, Liver DNA (NHP) [1, 11]: 0.207 fold; Fold Enrichment relative to AAV9, Liver RNA (NHP) [1, 12]: 0.200 fold; Fold Enrichment relative to AAV9, Muscle (NHP) [1, 13]: 0.014 fold; Fold Enrichment relative to AAV9, Brain (Mouse) (brain; [14]): 54.179 fold
KTINGSGSPHSKAQVPPT | – | – | – | – | – | – | – | 57.316 | 0.000 | 0.012 | 0.200 | 0.257 | 0.000 | 90.220 | –
KTEKTSGSPHSKAQNQQT | 120.337 | 0.000 | 0.355 | 0.119 | 0.000 | 0.000 | 101.467 | – | – | – | – | – | – | – | Fold Enrichment relative to AAV9, DRG (NHP) [1, 8]: 0.000 fold; Fold Enrichment relative to AAV9, Brain (NHP) [1, 9]: 120.337 fold; Fold Enrichment relative to AAV9, Heart (NHP) [1, 10]: 0.355 fold; Fold Enrichment relative to AAV9, Liver DNA (NHP) [1, 11]: 0.119 fold; Fold Enrichment relative to AAV9, Liver RNA (NHP) [1, 12]: 0.000 fold; Fold Enrichment relative to AAV9, Muscle (NHP) [1, 13]: 0.000 fold; Fold Enrichment relative to AAV9, Brain (Mouse) (brain; [14]): 101.467 fold
KTVNGNGSPHSKSQNQQT | – | – | – | – | – | – | – | 54.586 | 0.000 | 0.000 | 0.168 | 0.256 | 0.000 | 95.384 | –
KTINGGGSPHSKSQNQLT | 82.231 | 0.000 | 0.070 | 0.498 | 0.000 | 0.000 | 126.986 | – | – | – | – | – | – | – | Fold Enrichment relative to AAV9, DRG (NHP) [1, 8]: 0.000 fold; Fold Enrichment relative to AAV9, Brain (NHP) [1, 9]: 82.231 fold; Fold Enrichment relative to AAV9, Heart (NHP) [1, 10]: 0.070 fold; Fold Enrichment relative to AAV9, Liver DNA (NHP) [1, 11]: 0.498 fold; Fold Enrichment relative to AAV9, Liver RNA (NHP) [1, 12]: 0.000 fold; Fold Enrichment relative to AAV9, Muscle (NHP) [1, 13]: 0.000 fold; Fold Enrichment relative to AAV9, Brain (Mouse) (brain; [14]): 126.986 fold
KTINGHESPHKSAQNRQT | 95.531 | 0.000 | 0.113 | 0.082 | 0.130 | 0.000 | 4.815 | – | – | – | – | – | – | – | –
KTINGSGSPHSKAPGLQT | – | – | – | – | – | – | – | – | – | – | – | – | – | – | Fold Enrichment relative to AAV9, DRG (NHP) [1, 8]: 0.007 fold; Fold Enrichment relative to AAV9, Brain (NHP) [1, 9]: 62.043 fold; Fold Enrichment relative to AAV9, Heart (NHP) [1, 10]: 0.000 fold; Fold Enrichment relative to AAV9, Liver DNA (NHP) [1, 11]: 0.210 fold; Fold Enrichment relative to AAV9, Liver RNA (NHP) [1, 12]: 0.651 fold; Fold Enrichment relative to AAV9, Muscle (NHP) [1, 13]: 0.005 fold; Fold Enrichment relative to AAV9, Brain (Mouse) (brain; [14]): 144.610 fold
KTINGHDSPHKSGQSVQT | 75.748 | 0.010 | 6.808 | 0.058 | 0.165 | 0.000 | 9.321 | – | – | – | – | – | – | – | –
KTVNGGGSPHSKSQNQQT | – | – | – | – | – | – | – | 56.114 | 0.116 | 0.000 | 0.040 | 0.000 | 0.000 | 170.548 | –
KTINGTGSPHSKAPNQLT | – | – | – | – | – | – | – | 58.738 | 0.000 | 0.000 | 0.035 | 0.229 | 0.000 | 86.939 | –
KTDNGSGSPHSKAHNQQT | 95.164 | 0.000 | 0.000 | 0.027 | 0.000 | 0.000 | 55.313 | – | – | – | – | – | – | – | Fold Enrichment relative to AAV9, DRG (NHP) [1, 8]: 0.000 fold; Fold Enrichment relative to AAV9, Brain (NHP) [1, 9]: 95.164 fold; Fold Enrichment relative to AAV9, Heart (NHP) [1, 10]: 0.000 fold; Fold Enrichment relative to AAV9, Liver DNA (NHP) [1, 11]: 0.027 fold; Fold Enrichment relative to AAV9, Liver RNA (NHP) [1, 12]: 0.000 fold; Fold Enrichment relative to AAV9, Muscle (NHP) [1, 13]: 0.000 fold; Fold Enrichment relative to AAV9, Brain (Mouse) (brain; [14]): 55.313 fold
KTINGGGSPHSKAQRQQT | – | – | – | – | – | – | – | 50.998 | 0.000 | 0.041 | 0.142 | 0.991 | 0.000 | 147.942 | –
KTRDASGSPHSKAQNQQT | – | – | – | – | – | – | – | 52.861 | 0.000 | 0.000 | 0.402 | 1.062 | 0.010 | 52.089 | –
KTIDGHDSPHKSGRNQQI | 80.240 | 0.000 | 0.037 | 0.144 | 0.040 | 0.000 | 10.363 | – | – | – | – | – | – | – | –
KTVNGGGSPHSKAQNQQS | – | – | – | – | – | – | – | – | – | – | – | – | – | – | Fold Enrichment relative to AAV9, DRG (NHP) [1, 8]: 0.062 fold; Fold Enrichment relative to AAV9, Brain (NHP) [1, 9]: 59.871 fold; Fold Enrichment relative to AAV9, Heart (NHP) [1, 10]: 0.020 fold; Fold Enrichment relative to AAV9, Liver DNA (NHP) [1, 11]: 0.185 fold; Fold Enrichment relative to AAV9, Liver RNA (NHP) [1, 12]: 0.080 fold; Fold Enrichment relative to AAV9, Muscle (NHP) [1, 13]: 0.000 fold; Fold Enrichment relative to AAV9, Brain (Mouse) (brain; [14]): 61.847 fold
KEVQGSGSPHSKAQNQQT | – | – | – | – | – | – | – | 58.125 | 0.000 | 0.000 | 0.000 | 0.657 | 0.000 | 168.220 | –
KEFVGSGSPHSKAQNQQT | – | – | – | – | – | – | – | 58.374 | 0.000 | 0.046 | 0.326 | 0.088 | 0.000 | 128.675 | –
